Data on one compound can be found in patent publication US20170009242A1, “CRISPR-Mediated Genome Engineering for Protein Depletion” (Whitehead Institute for Biomedical Research, priority 2015, published 2017).

Molecules are shown by their SMILES.

This assay deals with CENP-I-AID-EGFP fusion protein. In words: Auxin-induced depletion of endogenously tagged CENP-I-AID-EGFP, immunofluorescence microscopy. In kind it is cell-based. As to conditions: osTIR1-expressing DLD-1 cells, interphase cell; IAA 500 μM for 12 hr; immunofluorescence (FIG. 3). As for the experimental part:
DLD-1 cell lines were cultured as described previously in Dulbecco's Modified Eagle Medium (DMEM) supplemented with 10% fetal bovine serum (FBS), penicillin/streptomycin and 2 mM L-glutamine. Indole-3-acetic acid (IAA) (15148; Sigma) was dissolved in water and added to cells at a concentration of 500 μM for 12 hr. osTIR1-9Myc was cloned into the pBabe-puro vector and introduced into cell lines using retroviral delivery. Stable integrants were selected in puromycin and single clones isolated using single cell sorting. Western Blot analysis using an antibody raised against the Myc tag was used to determine the expression level of TIR1 protein in different clones. Rapidly growing clones with the high levels of osTIR1 expression were selected for further use. 2.5 ug each of pX330-GFP and the donor plasmid were co-transfected into osTIR1-9Myc expressing cells using Lipofectamine 2000 (Invitrogen) and OptiMEM according to the manufacturer's instructions. 24 h after transfection cells, were transferred to a 20 cm dish, and 48 h later cells were selected in […] G418 (Gibco) and 2 ug/ml puromycin to maintain the osTIR1. Colonies were harvested after 2 weeks and FACS sorted to isolate individual cells. […]

For `O=C(O)Cc1c[nH]c2ccccc12` [IAA, Indole-3-acetic acid], the “CENP-I-AID-EGFP fusion protein at kinetochores upon addition of IAA” value is “no longer observed” and the “associated proteins such as CENP-T at kinetochores upon addition of IAA” value is listed as “lost from kinetochores”.
